# Reference: US20260234403A1, “PHOTOACTIVE FLUORESCENT COMPOUNDS AND USE THEREOF FOR LABELING OF PROTEINS” (EIKON THERAPEUTICS, INC., priority 2023, published 2026)
# System: Wild-type (WT) U2OS cells
# Assay: Reduction in nonspecific labeling of WT cells (number of tracks vs PA-JF549)
# Assay type: cell-based
# Conditions: 100 nM, 1 hr, ratio with PA-JF549 in the numerator
# Description: Using the methods described in Tables 4a and 4b above, labelling specificity of the compound of Examples 1-28 was measured and compared to PA-JF549. U2OS cells wild type or expressing ER-HaloTag fusion were incubated with PA-JF549 or Examples 1-28 for 1 hr. […] Labeling specificity, as measured by the fold reduction in nonspecific labeling of WT cells, was calculated by number of tracks measured in WT cells for Examples 1-28 compared to the number of tracks in WT cells for PA-JF549, expressed as the ratio with PA-JF549 in the numerator.
# [1] = Table 4b, Example 19 with 642 nm light
Molecule,Fold reduction in nonspecific labeling [1],Fold reduction in nonspecific labeling (Table 4a)
"CN(C)C(=O)C1CN(c2ccc3c(c2)[Si](C)(C)c2cc(N4CC(C(=O)N(C)C)C4)ccc2C32C(=[N+]=[N-])C(=O)c3ccc(C(=O)NCCOCCOCCCCCCCl)cc32)C1 [Example 19, 1,1′-(6′-((2-(2-((6-chlorohexyl)oxy)ethoxy)ethyl)carbamoyl)-2′-diazo-5,5-dimethyl-3′-oxo-2′,3′-dihydro-5H-spiro[dibenzo[b,e]siline-10,1′-indene]-3,7-diyl)bis(N,N-dimethylazetidine-3-carboxamide)]",>10,
"[N-]=[N+]=C1C(=O)c2ccc(C(=O)NCCOCCOCCCCCCCl)cc2C12c1ccc(N3CC(C(=O)N4CCOCC4)C3)cc1Oc1cc(N3CC(C(=O)N4CCOCC4)C3)ccc12 [Example 9, N-(2-(2-((6-chlorohexyl)oxy)ethoxy)ethyl)-2-diazo-3′,6′-bis(3-(morpholine-4-carbonyl)azetidin-1-yl)-3-oxo-2,3-dihydrospiro[indene-1,9′-xanthene]-6-carboxamide]",>10,>10
"CN(C)C1CN(c2ccc3c(c2)Oc2cc(N4CC(N(C)C)C4)ccc2C32C(=[N+]=[N-])C(=O)c3ccc(C(=O)NCCOCCOCCCCCCCl)cc32)C1 [Example 13, N-(2-(2-((6-chlorohexyl)oxy)ethoxy)ethyl)-2-diazo-3′,6′-bis(3-(dimethylamino)azetidin-1-yl)-3-oxo-2,3-dihydrospiro[indene-1,9′-xanthene]-6-carboxamide]",5-10,5-10
"CN(CCOCCOCCCCCCCl)C(=O)c1ccc2c(c1)C1(C(=[N+]=[N-])C2=O)c2ccc(N3CCC3)cc2Oc2cc(N3CCC3)ccc21 [Example 8, 3′,6′-di(azetidin-1-yl)-N-(2-(2-((6-chlorohexyl)oxy)ethoxy)ethyl)-2-diazo-N-methyl-3-oxo-2,3-dihydrospiro[indene-1,9′-xanthene]-6-carboxamide]",5-10,5-10
"[N-]=[N+]=C1C(=O)c2ccc(NC(=O)CCOCCOCCCCCCCl)cc2C12c1ccc(N3CCC3)cc1Oc1cc(N3CCC3)ccc12 [Example 22, 3-(2-((6-chlorohexyl)oxy)ethoxy)-N-(3′,6′-di(azetidin-1-yl)-2-diazo-3-oxo-2,3-dihydrospiro[indene-1,9′-xanthen]-6-yl)propanamide]",5-10,
"[N-]=[N+]=C1C(=O)c2ccc(C(=O)NCCOCCOCCCCCCCl)cc2C12c1ccc(N3CC(O)C3)cc1Oc1cc(N3CC(O)C3)ccc12 [Example 7, N-(2-(2-((6-chlorohexyl)oxy)ethoxy)ethyl)-2-diazo-3′,6′-bis(3-hydroxyazetidin-1-yl)-3-oxo-2,3-dihydrospiro[indene-1,9′-xanthene]-6-carboxamide]",>10,>10
"[N-]=[N+]=C1C(=O)c2ccc(OCCCOCCOCCCCCCCl)cc2C12c1ccc(N3CCC3)cc1Oc1cc(N3CCC3)ccc12 [Example 25, 3′,6′-di(azetidin-1-yl)-6-(3-(2-((6-chlorohexyl)oxy)ethoxy)propoxy)-2-diazospiro[indene-1,9′-xanthen]-3(2H)-one]",<1,
"CN1CC2CC(C1)N2c1ccc2c(c1)Oc1cc(N3C4CC3CN(C)C4)ccc1C21C(=[N+]=[N-])C(=O)c2ccc(C(=O)NCCOCCOCCCCCCCl)cc21 (stereo not drawn) [Example 18, N-(2-(2-((6-chlorohexyl)oxy)ethoxy)ethyl)-2-diazo-3′,6′-bis(3-methyl-3,6-diazabicyclo[3.1.1]heptan-6-yl)-3-oxo-2,3-dihydrospiro[indene-1,9′-xanthene]-6-carboxamide]",>10,>10
"CNC(=O)C1CN(c2ccc3c(c2)Oc2cc(N4CC(C(=O)NC)C4)ccc2C32C(=[N+]=[N-])C(=O)c3ccc(C(=O)NCCOCCOCCCCCCCl)cc32)C1 [Example 12, 1,1′-(6-((2-(2-((6-chlorohexyl)oxy)ethoxy)ethyl)carbamoyl)-2-diazo-3-oxo-2,3-dihydrospiro[indene-1,9′-xanthene]-3′,6′-diyl)bis(N-methylazetidine-3-carboxamide)]",>10,>10
"O=C1OC2(c3ccc(N4CCC4)cc3Oc3cc(N4CCC4)ccc32)c2cc(NCCOCCOCCCCCCCl)ccc21 [Example 21, 3′,6′-di(azetidin-1-yl)-6-((2-(2-((6-chlorohexyl)oxy)ethoxy)ethyl)amino)-3H-spiro[isobenzofuran-1,9′-xanthen]-3-one]",5-10,
"[N-]=[N+]=C1C(=O)c2ccc(CCCCOCCOCCCCCCCl)cc2C12c1ccc(N3CCC3)cc1Oc1cc(N3CCC3)ccc12 [Example 24, 3′,6′-di(azetidin-1-yl)-6-(4-(2-((6-chlorohexyl)oxy)ethoxy)butyl)-2-diazospiro[indene-1,9′-xanthen]-3(2H)-one]",1-5,
"CN(C)C(=O)[C@H]1CCN(c2ccc3c(c2)Oc2cc(N4CC[C@H](C(=O)N(C)C)C4)ccc2C32C(=[N+]=[N-])C(=O)c3ccc(C(=O)NCCOCCOCCCCCCCl)cc32)C1 [Example 16, (3S,3′S)-1,1′-(6-((2-(2-((6-chlorohexyl)oxy)ethoxy)ethyl)carbamoyl)-2-diazo-3-oxo-2,3-dihydrospiro[indene-1,9′-xanthene]-3′,6′-diyl)bis(N,N-dimethylpyrrolidine-3-carboxamide)]",5-10,5-10
"CN(C)C(=O)[C@@H]1CCN1c1ccc2c(c1)Oc1cc(N3CC[C@H]3C(=O)N(C)C)ccc1C21C(=[N+]=[N-])C(=O)c2ccc(C(=O)NCCOCCOCCCCCCCl)cc21 [Example 14, (2S,2′S)-1,1′-(6-((2-(2-((6-chlorohexyl)oxy)ethoxy)ethyl)carbamoyl)-2-diazo-3-oxo-2,3-dihydrospiro[indene-1,9′-xanthene]-3′,6′-diyl)bis(N,N-dimethylazetidine-2-carboxamide)]",>10,>10
"CN(C)C(=O)C1CN(c2ccc3c(c2)Oc2cc(N4CC(C(=O)N(C)C)C4)ccc2C32C(=[N+]=[N-])C(=O)c3ccc(C(=O)NCc4ccc(COc5nc(N)nc6nc[nH]c56)cc4)cc32)C1 [Example 5, 1,1′-(6-((4-(((2-amino-7H-purin-6-yl)oxy)methyl)benzyl)carbamoyl)-2-diazo-3-oxo-2,3-dihydrospiro[indene-1,9′-xanthene]-3′,6′-diyl)bis(N,N-dimethylazetidine-3-carboxamide)]",>10,>10
"COC(=O)[C@H]1CCN1c1ccc2c(c1)Oc1cc(N3CC[C@@H]3C(=O)OC)ccc1C21C(=[N+]=[N-])C(=O)c2ccc(C(=O)NCCOCCOCCCCCCCl)cc21 [Example 6, Dimethyl 1,1′-(6-((2-(2-((6-chlorohexyl)oxy)ethoxy)ethyl)carbamoyl)-2-diazo-3-oxo-2,3-dihydrospiro[indene-1,9′-xanthene]-3′,6′-diyl)(2R,2′R)-bis(azetidine-2-carboxylate)]",1-5,1-5
"1,1′-(6-((2-(2-((6-chlorohexyl)oxy)ethoxy)ethyl)carbamoyl)-2-diazo-3-oxo-2,3-dihydrospiro[indene-1,9′-xanthene]-3′,6′-diyl)bis(azetidine-3-carboxamide [Example 20]",>10,
"CN(CCOCCOCCCCCCCl)Cc1ccc2c(c1)C1(C(=[N+]=[N-])C2=O)c2ccc(N3CCC3)cc2Oc2cc(N3CCC3)ccc21 [Example 26, 3′,6′-di(azetidin-1-yl)-6-(((2-(2-((6-chlorohexyl)oxy)ethoxy)ethyl)(methyl)amino)methyl)-2-diazospiro[indene-1,9′-xanthen]-3(2H)-one]",<1,
"[N-]=[N+]=C1C(=O)c2ccc(COCCOCCOCCCCCCCl)cc2C12c1ccc(N3CCC3)cc1Oc1cc(N3CCC3)ccc12 [Example 27, 3′,6′-di(azetidin-1-yl)-6-((2-(2-((6-chlorohexyl)oxy)ethoxy)ethoxy)methyl)-2-diazospiro[indene-1,9′-xanthen]-3(2H)-one]",<1,
"[N-]=[N+]=C1C(=O)c2ccc(C(=O)NCCOCCOCCCCCCCl)cc2C12c1ccc(N3CC[C@@H]3CO)cc1Oc1cc(N3CC[C@@H]3CO)ccc12 [Example 15, N-(2-(2-((6-chlorohexyl)oxy)ethoxy)ethyl)-2-diazo-3′,6′-bis((R)-2-(hydroxymethyl)azetidin-1-yl)-3-oxo-2,3-dihydrospiro[indene-1,9′-xanthene]-6-carboxamide]",5-10,5-10
"[N-]=[N+]=C1C(=O)c2ccc(C(=O)NCCOCCOCCCCCCCl)cc2C12c1ccc(N3C4COCC3C4)cc1Oc1cc(N3C4COCC3C4)ccc12 (stereo not drawn) [Example 17, 3′,6′-di(3-oxa-6-azabicyclo[3.1.1]heptan-6-yl)-N-(2-(2-((6-chlorohexyl)oxy)ethoxy)ethyl)-2-diazo-3-oxo-2,3-dihydrospiro[indene-1,9′-xanthene]-6-carboxamide]",1-5,1-5
"(E)-3′,6′-di(azetidin-1-yl)-6-(4-(2-((6-chlorohexyl)oxy)ethoxy)but-1-en-1-yl)-2-diazospiro[indene-1,9′-xanthen]-3(2H)-one and (Z)-3′,6′-di(azetidin-1-yl)-6-(4-(2-((6-chlorohexyl)oxy)ethoxy)but-1-en-1-yl)-2-diazospiro[indene-1,9′-xanthen]-3(2H)-one [Example 23]",>10,
